# Source: ChEMBL document CHEMBL1949544, “Proteasome inhibitors from Neoboutonia melleri” (J Nat Prod, 2012)
# Test system: DLD-1
# Experiment: Inhibition of proteasome activity in human DLD1 cells expressing 4-ubiquitin luciferase reporter protein assessed increase of luciferase signal at 0.5 uM after 7 hrs relative to control
row,SMILES,fold change (FC)
1,C=C(C(=O)[C@H](OC(C)=O)[C@@H](C)[C@H]1[C@@H](OC(C)=O)C[C@@]2(C)[C@@H]3CC[C@H]4[C@H](C)C(=O)C=C[C@@]45C[C@@]35CC[C@]12C)[C@@H](C)CO,2.1
2,C=C(C(=O)[C@H](O)[C@@H](C)[C@H]1[C@@H](OC(C)=O)C[C@@]2(C)[C@@H]3CC[C@H]4[C@H](C)C(=O)C=C[C@]45C[C@]35CC[C@]12C)[C@@H](C)CO,0.9
3,C=C(C(=O)[C@H](O)[C@@H](C)[C@H]1[C@@H](OC(C)=O)C[C@@]2(C)[C@@H]3CC[C@H]4[C@H](C)C(=O)C[C@H](O)[C@@]45C[C@@]35CC[C@]12C)[C@@H](C)CO,1.3
4,C=C(C(=O)[C@H](OC(C)=O)[C@@H](C)[C@H]1[C@@H](OC(C)=O)C[C@@]2(C)[C@@H]3CC[C@H]4[C@H](C)C(=O)C=C[C@@]45C[C@@]35CC[C@]12C)[C@@H](C)COC(C)=O,1.1
5,C=C(C(=O)[C@H](OC(C)=O)[C@@H](C)[C@H]1[C@@H](OC(C)=O)C[C@@]2(C)[C@@H]3CC[C@H]4[C@H](C)C(=O)C=C[C@]45C[C@]35CC[C@]12C)[C@@H](C)CO,1.4
6,C=C(C(=O)[C@H](O)[C@@H](C)[C@H]1[C@@H](OC(C)=O)C[C@@]2(C)[C@@H]3CC[C@H]4[C@H](C)C(=O)C=C[C@@]45C[C@@]35CC[C@]12C)[C@@H](C)CO,1.4
7,C=C(C(=O)[C@H](OC(C)=O)[C@@H](C)[C@H]1[C@@H](OC(C)=O)C[C@@]2(C)[C@@H]3C[C@@H](O)[C@H]4[C@H](C)C(=O)C=C[C@@]45C[C@@]35CC[C@]12C)[C@@H](C)CO,1.2
8,C=C(C(=O)[C@H](OC(C)=O)[C@@H](C)[C@H]1[C@@H](OC(C)=O)C[C@@]2(C)[C@@H]3CC[C@H]4[C@H](C)C(=O)C=C[C@@]45C[C@@]35CC[C@]12C)[C@H](C)CO,1

# Test system: DLD-1
# Experiment: Inhibition of proteasome activity in human DLD1 cells expressing 4-ubiquitin luciferase reporter protein assessed increase of luciferase signal at 1 uM after 7 hrs relative to control
row,SMILES,fold change (FC)
1,CC(C)=CC(=O)C[C@@H](C)[C@H]1CC[C@@]2(C)[C@@H]3CC[C@H]4[C@](C)(C(=O)O[C@@H]5O[C@@H](C)[C@H](O)[C@@H](O)[C@H]5O)[C@@H](O)CC[C@@]45C[C@@]35CC[C@]12C,1
2,C=C(C(=O)C[C@@H](C)[C@H]1CC[C@@]2(C)[C@@H]3CC[C@H]4[C@](C)(C(=O)O[C@@H]5O[C@@H](C)[C@H](O)[C@@H](O)[C@H]5O)[C@@H](O)CC[C@@]45C[C@@]35CC[C@]12C)C(C)C,1.1
3,C=C(C(=O)[C@H](OC(C)=O)[C@@H](C)[C@H]1[C@@H](OC(C)=O)C[C@@]2(C)[C@@H]3CC[C@H]4[C@H](C)C(=O)C=C[C@@]45C[C@@]35CC[C@]12C)[C@@H](C)CO,48
4,C=C(C(=O)[C@H](O)[C@@H](C)[C@H]1[C@@H](OC(C)=O)C[C@@]2(C)[C@@H]3CC[C@H]4[C@H](C)C(=O)C=C[C@]45C[C@]35CC[C@]12C)[C@@H](C)CO,0.9
5,CC(=O)O[C@H]1C[C@@]2(C)[C@@H]3CC[C@H]4[C@H](C)C(=O)C=C[C@@]45C[C@@]35CC[C@]2(C)[C@H]1[C@H](C)[C@@H](OC(C)=O)C(=O)C=C(C)C,1.1
6,C=C(C(=O)[C@H](O)[C@@H](C)[C@H]1[C@@H](OC(C)=O)C[C@@]2(C)[C@@H]3CC[C@H]4[C@H](C)C(=O)C[C@H](O)[C@@]45C[C@@]35CC[C@]12C)[C@@H](C)CO,1.6
7,C=C(C(=O)[C@H](OC(C)=O)[C@@H](C)[C@H]1[C@@H](OC(C)=O)C[C@@]2(C)[C@@H]3CC[C@H]4[C@H](C)C(=O)C=C[C@@]45C[C@@]35CC[C@]12C)[C@@H](C)COC(C)=O,12
8,C=C1C(C)CO[C@@]12C[C@@H](C)[C@H]1[C@H](C[C@@]3(C)[C@@H]4CC[C@H]5[C@](C)(C(=O)O)[C@@H](O)CC[C@@]56C[C@@]46CC[C@]13C)O2 (some centres undefined),1.2
9,C=C(C(=O)[C@H](OC(C)=O)[C@@H](C)[C@H]1[C@@H](OC(C)=O)C[C@@]2(C)[C@@H]3CC[C@H]4[C@H](C)C(=O)[C@H](O)[C@H]5C[C@]54C3=CC[C@]12C)[C@@H](C)CO,1.2
10,C=C(C(=O)[C@H](OC(C)=O)[C@@H](C)[C@H]1[C@@H](OC(C)=O)C[C@@]2(C)[C@@H]3CC[C@H]4[C@H](C)C(=O)C=C[C@]45C[C@]35CC[C@]12C)[C@@H](C)CO,2
11,C=C(C(=O)[C@H](O)[C@@H](C)[C@H]1[C@@H](OC(C)=O)C[C@@]2(C)[C@@H]3CC[C@H]4[C@H](C)C(=O)C=C[C@@]45C[C@@]35CC[C@]12C)[C@@H](C)CO,45
12,C=C(C(=O)[C@H](OC(C)=O)[C@@H](C)[C@H]1[C@@H](OC(C)=O)C[C@@]2(C)[C@@H]3C[C@@H](O)[C@H]4[C@H](C)C(=O)C=C[C@@]45C[C@@]35CC[C@]12C)[C@@H](C)CO,5.1
13,C=C(C(=O)[C@H](OC(C)=O)[C@@H](C)[C@H]1[C@@H](OC(C)=O)C[C@@]2(C)[C@@H]3CC[C@H]4[C@H](C)C(=O)C=C[C@@]45C[C@@]35CC[C@]12C)[C@H](C)CO,1.5

# Test system: DLD-1
# Experiment: Inhibition of proteasome activity in human DLD1 cells expressing 4-ubiquitin luciferase reporter protein assessed increase of luciferase signal at 5 uM after 7 hrs relative to control
row,SMILES,fold change (FC)
1,CC(C)=CC(=O)C[C@@H](C)[C@H]1CC[C@@]2(C)[C@@H]3CC[C@H]4[C@](C)(C(=O)O[C@@H]5O[C@@H](C)[C@H](O)[C@@H](O)[C@H]5O)[C@@H](O)CC[C@@]45C[C@@]35CC[C@]12C,1
2,C=C(C(=O)C[C@@H](C)[C@H]1CC[C@@]2(C)[C@@H]3CC[C@H]4[C@](C)(C(=O)O[C@@H]5O[C@@H](C)[C@H](O)[C@@H](O)[C@H]5O)[C@@H](O)CC[C@@]45C[C@@]35CC[C@]12C)C(C)C,1
3,C=C(C(=O)[C@H](OC(C)=O)[C@@H](C)[C@H]1[C@@H](OC(C)=O)C[C@@]2(C)[C@@H]3CC[C@H]4[C@H](C)C(=O)C=C[C@@]45C[C@@]35CC[C@]12C)[C@@H](C)CO,37
4,C=C(C(=O)[C@H](O)[C@@H](C)[C@H]1[C@@H](OC(C)=O)C[C@@]2(C)[C@@H]3CC[C@H]4[C@H](C)C(=O)C=C[C@]45C[C@]35CC[C@]12C)[C@@H](C)CO,9.1
5,CC(=O)O[C@H]1C[C@@]2(C)[C@@H]3CC[C@H]4[C@H](C)C(=O)C=C[C@@]45C[C@@]35CC[C@]2(C)[C@H]1[C@H](C)[C@@H](OC(C)=O)C(=O)C=C(C)C,34
6,C=C(C(=O)[C@H](O)[C@@H](C)[C@H]1[C@@H](OC(C)=O)C[C@@]2(C)[C@@H]3CC[C@H]4[C@H](C)C(=O)C[C@H](O)[C@@]45C[C@@]35CC[C@]12C)[C@@H](C)CO,11
7,C=C(C(=O)[C@H](OC(C)=O)[C@@H](C)[C@H]1[C@@H](OC(C)=O)C[C@@]2(C)[C@@H]3CC[C@H]4[C@H](C)C(=O)C=C[C@@]45C[C@@]35CC[C@]12C)[C@@H](C)COC(C)=O,48
8,C=C1C(C)CO[C@@]12C[C@@H](C)[C@H]1[C@H](C[C@@]3(C)[C@@H]4CC[C@H]5[C@](C)(C(=O)O)[C@@H](O)CC[C@@]56C[C@@]46CC[C@]13C)O2 (some centres undefined),1.3
9,C=C(C(=O)[C@H](OC(C)=O)[C@@H](C)[C@H]1[C@@H](OC(C)=O)C[C@@]2(C)[C@@H]3CC[C@H]4[C@H](C)C(=O)[C@H](O)[C@H]5C[C@]54C3=CC[C@]12C)[C@@H](C)CO,1.9
10,C=C(C(=O)[C@H](OC(C)=O)[C@@H](C)[C@H]1[C@@H](OC(C)=O)C[C@@]2(C)[C@@H]3CC[C@H]4[C@H](C)C(=O)C=C[C@]45C[C@]35CC[C@]12C)[C@@H](C)CO,84
11,C=C(C(=O)[C@H](O)[C@@H](C)[C@H]1[C@@H](OC(C)=O)C[C@@]2(C)[C@@H]3CC[C@H]4[C@H](C)C(=O)C=C[C@@]45C[C@@]35CC[C@]12C)[C@@H](C)CO,28
12,C=C(C(=O)[C@H](OC(C)=O)[C@@H](C)[C@H]1[C@@H](OC(C)=O)C[C@@]2(C)[C@@H]3C[C@@H](O)[C@H]4[C@H](C)C(=O)C=C[C@@]45C[C@@]35CC[C@]12C)[C@@H](C)CO,31
13,C=C(C(=O)[C@H](OC(C)=O)[C@@H](C)[C@H]1[C@@H](OC(C)=O)C[C@@]2(C)[C@@H]3CC[C@H]4[C@H](C)C(=O)C=C[C@@]45C[C@@]35CC[C@]12C)[C@H](C)CO,71

# Test system: DLD-1
# Experiment: Inhibition of proteasome activity in human DLD1 cells expressing 4-ubiquitin luciferase reporter protein assessed increase of luciferase signal at 10 uM after 7 hrs relative to control
row,SMILES,fold change (FC)
1,CC(C)=CC(=O)C[C@@H](C)[C@H]1CC[C@@]2(C)[C@@H]3CC[C@H]4[C@](C)(C(=O)O[C@@H]5O[C@@H](C)[C@H](O)[C@@H](O)[C@H]5O)[C@@H](O)CC[C@@]45C[C@@]35CC[C@]12C,1.1
2,C=C(C(=O)C[C@@H](C)[C@H]1CC[C@@]2(C)[C@@H]3CC[C@H]4[C@](C)(C(=O)O[C@@H]5O[C@@H](C)[C@H](O)[C@@H](O)[C@H]5O)[C@@H](O)CC[C@@]45C[C@@]35CC[C@]12C)C(C)C,1.1
3,C=C(C(=O)[C@H](OC(C)=O)[C@@H](C)[C@H]1[C@@H](OC(C)=O)C[C@@]2(C)[C@@H]3CC[C@H]4[C@H](C)C(=O)C=C[C@@]45C[C@@]35CC[C@]12C)[C@@H](C)CO,4.4
4,CC(=O)O[C@H]1C[C@@]2(C)[C@@H]3CC[C@H]4[C@H](C)C(=O)C=C[C@@]45C[C@@]35CC[C@]2(C)[C@H]1[C@H](C)[C@@H](OC(C)=O)C(=O)C=C(C)C,44
5,C=C(C(=O)[C@H](O)[C@@H](C)[C@H]1[C@@H](OC(C)=O)C[C@@]2(C)[C@@H]3CC[C@H]4[C@H](C)C(=O)C[C@H](O)[C@@]45C[C@@]35CC[C@]12C)[C@@H](C)CO,74
6,C=C1C(C)CO[C@@]12C[C@@H](C)[C@H]1[C@H](C[C@@]3(C)[C@@H]4CC[C@H]5[C@](C)(C(=O)O)[C@@H](O)CC[C@@]56C[C@@]46CC[C@]13C)O2 (some centres undefined),1.3
7,C=C(C(=O)[C@H](OC(C)=O)[C@@H](C)[C@H]1[C@@H](OC(C)=O)C[C@@]2(C)[C@@H]3CC[C@H]4[C@H](C)C(=O)[C@H](O)[C@H]5C[C@]54C3=CC[C@]12C)[C@@H](C)CO,15
8,C=C(C(=O)[C@H](OC(C)=O)[C@@H](C)[C@H]1[C@@H](OC(C)=O)C[C@@]2(C)[C@@H]3CC[C@H]4[C@H](C)C(=O)C=C[C@]45C[C@]35CC[C@]12C)[C@@H](C)CO,24
9,C=C(C(=O)[C@H](O)[C@@H](C)[C@H]1[C@@H](OC(C)=O)C[C@@]2(C)[C@@H]3CC[C@H]4[C@H](C)C(=O)C=C[C@@]45C[C@@]35CC[C@]12C)[C@@H](C)CO,2.9
10,C=C(C(=O)[C@H](OC(C)=O)[C@@H](C)[C@H]1[C@@H](OC(C)=O)C[C@@]2(C)[C@@H]3CC[C@H]4[C@H](C)C(=O)C=C[C@@]45C[C@@]35CC[C@]12C)[C@H](C)CO,60
